Measurements: article PMC4912218, “Targeted metabolomics of Gammarus pulex following controlled exposures to selected pharmaceuticals in water” (The Science of the Total Environment, 2016)

Test system: Gammarus pulex
Assay: Targeted metabolite profiling (LC-HRMS) of G. pulex after exposure at NOAEL and LOAEL
Format: in vivo
Method: Approximately 100 specimens were introduced in a tank containing 1 L of AFW (control), 1 L of AFW spiked with C1 and 1 L of AFW with C2. At three different times (2, 6 and 24 h), 4 replicates of live G. pulex (a pool of 6–7 animals for each replicate) were collected, frozen on dry ice and then stored at − 80 °C before metabolite profiling was performed.
Quantification of pharmaceutical concentrations in G. pulex at the 24 h exposure interval was performed. Separate exposures were set up in triplicate in beakers containing 200 mL of exposure solution (AFW spiked with the respective C1 pharmaceutical dose) and 20 organisms. At 24 h, animals were immediately rinsed with ultra-pure water and then frozen at − 20 °C for 24 h. […] Prior to extraction, frozen G. pulex samples were lyophilised at − 50 °C under vacuum for 48 h and milled in an agate mortar to a fine powder. For each analysis, 20 mg of a lyophilised composite sample were transferred to 2 mL polypropylene tubes (Eppendorf®, Hamburg, Germany), for solid-liquid extraction (SLE). […] Then, samples were shaken for 25 min on a vibration plate (IKA® KS 260 basic) and centrifuged at 14,000 rpm for 25 min at 0 °C. Finally, the supernatant was transferred to a chromatographic vial by using a […] syringe filter (Whatman, GE Healthcare Life Sciences, Buckinghamshire, UK). All samples were stored at − 80 °C until LC-HRMS analysis.
Briefly, 50 mg of lyophilised G. pulex were extracted in 5 mL of acetonitrile and pre-concentrated on Oasis HLB SPE cartridges (6 mL, 200 mg sorbent). The extract was eluted, dried-down and reconstituted in starting LC mobile phase. […] Organic acids, nucleosides, nucleotides, sugars and AAs were measured using LC–HRMS. An Exactive™ mass spectrometer equipped with heated electrospray ionization (H-ESI) source was used (Thermo Fisher Scientific, Bremen, Germany). The system was equipped with a HTC PAL autosampler and a Surveyor MS Plus pump. A TSK Gel-Amide 80 column (2 × 250 mm, 5 μm) for analyte separation was purchased from Sigma Aldrich. Mobile phases were binary mixtures of acetonitrile (A) and 5 mM ammonium acetate (pH 5) in HPLC-grade water (B). […] The flow rate was set at 150 μL min^− 1 and the injection volume was 5 μL. […] Full scan acquisition over a mass range of 80–800 Da was performed at 70,000 full width at half maximum (FWHM) and spray voltage at 3.00 kV, capillary voltage at 30 V, skimmer voltage at 28 V and tube lens voltage at 130 V were used. A sheath gas flow rate of 45 arbitrary units (au), an auxiliary gas flow rate of 10 au and a capillary temperature at 300 °C were selected.
Here, pharmaceutical residue quantification in exposed G. pulex was performed by a 3-point matrix-matched calibration curve. […] The algal amino acid mixture-^13C,^15N (see Table 1) was used as internal standard (IS) for extraction and analytical control. L-ornithine hydrochloride, inosine, thymidine, taurine, 1.7-dimethylxanthine and (−)-riboflavin were quantified using either ^13C,^15N-proline or ^13C,^15N-tyrosine as the internal standard. The remaining 15 compounds were quantified using external calibration and the target compound itself was used as external standard. […] The method detection limit (MDL) was calculated following the same procedure, using spiked lyophilised G. pulex samples at a concentration of 1 μg g^− 1. Intra-assay variation was assessed using five consecutive injections of 5 ng μL^− 1 standard solution, and inter-assay variation was determined by measuring the same standard solution on four different days. […] Recovery studies were performed in triplicate, using lyophilised G. pulex samples spiked at 1 μg g^− 1 with the metabolites mixture and the algal amino acid mixture-^13C, ^15N.

`Oc1cc(Cl)ccc1Oc1ccc(Cl)cc1Cl` [Triclosan] was tested, and the “(-)-Riboflavin concentration in G. pulex” value (2h, C1= 0.1 mg/L) was 2.6 ± 0.7 µg/g, the “ADP concentration in G. pulex” value (2h, C1= 0.1 mg/L) was 28.6 ± 2 µg/g and the “Cytidine concentration in G. pulex” value (2h, C1= 0.1 mg/L) was 34 ± 22 µg/g. For the same molecule, the “Hypoxanthine concentration in G. pulex” value (2h, C1= 0.1 mg/L) was 123 ± 4 µg/g, the “Inosine concentration in G. pulex” value (2h, C1= 0.1 mg/L) was 14808 ± 1341 µg/g and the “L-2-amino-n-butyric concentration in G. pulex” value (2h, C1= 0.1 mg/L) was 15.1 ± 3 µg/g. For the same molecule, the “L-(-)-Proline concentration in G. pulex” value (2h, C1= 0.1 mg/L) was 499 ± 11 µg/g, the “L-Alanine concentration in G. pulex” value (2h, C1= 0.1 mg/L) was 999 ± 2 µg/g and the “L-Citrulline concentration in G. pulex” value (2h, C1= 0.1 mg/L) was 9.7 ± 0.4 µg/g. For the same molecule, the “L-Isoleucine concentration in G. pulex” value (2h, C1= 0.1 mg/L) was 2067 ± 110 µg/g, the “L-Leucine concentration in G. pulex” value (2h, C1= 0.1 mg/L) was 443 ± 1 µg/g and the “L-Methionine concentration in G. pulex” value (2h, C1= 0.1 mg/L) was 5.4 ± 0.6 µg/g. The “L-Phenylalanine concentration in G. pulex” value (2h, C1= 0.1 mg/L) was 340 ± 28 µg/g, the “L-Serine concentration in G. pulex” value (2h, C1= 0.1 mg/L) was 158 ± 7 µg/g and the “L-Threonine concentration in G. pulex” value (2h, C1= 0.1 mg/L) was 740 ± 6 µg/g. The “L-Tryptophan concentration in G. pulex” value (2h, C1= 0.1 mg/L) was 74 ± 20 µg/g, the “L-Tyrosine concentration in G. pulex” value (2h, C1= 0.1 mg/L) was 247 ± 8 µg/g and the “L-Valine concentration in G. pulex” value (2h, C1= 0.1 mg/L) was 500 ± 1 µg/g. The “L-aspartic acid concentration in G. pulex” value (2h, C1= 0.1 mg/L) was 62.6 ± 3 µg/g, the “NADH concentration in G. pulex” value (2h, C1= 0.1 mg/L) was 7.11 ± 0.1 µg/g and the “Taurine concentration in G. pulex” value (2h, C1= 0.1 mg/L) was 7300 ± 168 µg/g. The “Thymidine concentration in G. pulex” value (2h, C1= 0.1 mg/L) was 2918 ± 603 µg/g, the “Trehalose concentration in G. pulex” value (2h, C1= 0.1 mg/L) was 197 ± 1 µg/g and the “Uridine concentration in G. pulex” value (2h, C1= 0.1 mg/L) was 699 ± 21 µg/g. For the same molecule, the “(-)-Riboflavin concentration in G. pulex” value (2h, C2= 0.3 mg/L) was 2.4 ± 0.5 µg/g, the “ADP concentration in G. pulex” value (2h, C2= 0.3 mg/L) was 30.5 ± 0.2 µg/g and the “Cytidine concentration in G. pulex” value (2h, C2= 0.3 mg/L) was 15 ± 6 µg/g. The “Hypoxanthine concentration in G. pulex” value (2h, C2= 0.3 mg/L) was 74 ± 22 µg/g, the “Inosine concentration in G. pulex” value (2h, C2= 0.3 mg/L) was 20640 ± 179 µg/g and the “L-2-amino-n-butyric concentration in G. pulex” value (2h, C2= 0.3 mg/L) was 17.0 ± 2 µg/g. The “L-(-)-Proline concentration in G. pulex” value (2h, C2= 0.3 mg/L) was 313 ± 1 µg/g, the “L-Alanine concentration in G. pulex” value (2h, C2= 0.3 mg/L) was 827 ± 10 µg/g and the “L-Citrulline concentration in G. pulex” value (2h, C2= 0.3 mg/L) was 14.6 ± 0.4 µg/g. For the same molecule, the “L-Isoleucine concentration in G. pulex” value (2h, C2= 0.3 mg/L) was 1140 ± 38 µg/g, the “L-Leucine concentration in G. pulex” value (2h, C2= 0.3 mg/L) was 361 ± 17 µg/g and the “L-Methionine concentration in G. pulex” value (2h, C2= 0.3 mg/L) was 3.8 ± 0.6 µg/g. The “L-Phenylalanine concentration in G. pulex” value (2h, C2= 0.3 mg/L) was 200 ± 15 µg/g, the “L-Serine concentration in G. pulex” value (2h, C2= 0.3 mg/L) was 158 ± 7 µg/g and the “L-Threonine concentration in G. pulex” value (2h, C2= 0.3 mg/L) was 530 ± 7 µg/g. The “L-Tryptophan concentration in G. pulex” value (2h, C2= 0.3 mg/L) was 142 ± 7 µg/g, the “L-Tyrosine concentration in G. pulex” value (2h, C2= 0.3 mg/L) was 216 ± 5 µg/g and the “L-Valine concentration in G. pulex” value (2h, C2= 0.3 mg/L) was 268 ± 1 µg/g. The “L-aspartic acid concentration in G. pulex” value (2h, C2= 0.3 mg/L) was 60.5 ± 3 µg/g, the “NADH concentration in G. pulex” value (2h, C2= 0.3 mg/L) was 9.3 ± 0.2 µg/g and the “Taurine concentration in G. pulex” value (2h, C2= 0.3 mg/L) was 7645 ± 212 µg/g. The “Thymidine concentration in G. pulex” value (2h, C2= 0.3 mg/L) was 639 ± 140 µg/g, the “Trehalose concentration in G. pulex” value (2h, C2= 0.3 mg/L) was 272 ± 10 µg/g and the “Uridine concentration in G. pulex” value (2h, C2= 0.3 mg/L) was 506 ± 66 µg/g. The “(-)-Riboflavin concentration in G. pulex” value (6h, C1= 0.1 mg/L) was 3.4 ± 3 µg/g, the “ADP concentration in G. pulex” value (6h, C1= 0.1 mg/L) was 18.6 ± 3 µg/g and the “Cytidine concentration in G. pulex” value (6h, C1= 0.1 mg/L) was 66 ± 21 µg/g. For the same molecule, the “Hypoxanthine concentration in G. pulex” value (6h, C1= 0.1 mg/L) was 154 ± 27 µg/g, the “Inosine concentration in G. pulex” value (6h, C1= 0.1 mg/L) was 18116 ± 26 µg/g and the “L-2-amino-n-butyric concentration in G. pulex” value (6h, C1= 0.1 mg/L) was 21.1 ± 4 µg/g. For the same molecule, the “L-(-)-Proline concentration in G. pulex” value (6h, C1= 0.1 mg/L) was 462 ± 5 µg/g, the “L-Alanine concentration in G. pulex” value (6h, C1= 0.1 mg/L) was 1119 ± 48 µg/g and the “L-Citrulline concentration in G. pulex” value (6h, C1= 0.1 mg/L) was 9.0 ± 0.9 µg/g. For the same molecule, the “L-Isoleucine concentration in G. pulex” value (6h, C1= 0.1 mg/L) was 2685 ± 88 µg/g, the “L-Leucine concentration in G. pulex” value (6h, C1= 0.1 mg/L) was 459 ± 4 µg/g and the “L-Methionine concentration in G. pulex” value (6h, C1= 0.1 mg/L) was 5.0 ± 0.5 µg/g. For the same molecule, the “L-Phenylalanine concentration in G. pulex” value (6h, C1= 0.1 mg/L) was 417 ± 5 µg/g, the “L-Serine concentration in G. pulex” value (6h, C1= 0.1 mg/L) was 179 ± 13 µg/g and the “L-Threonine concentration in G. pulex” value (6h, C1= 0.1 mg/L) was 787 ± 22 µg/g. For the same molecule, the “L-Tryptophan concentration in G. pulex” value (6h, C1= 0.1 mg/L) was 97 ± 16 µg/g, the “L-Tyrosine concentration in G. pulex” value (6h, C1= 0.1 mg/L) was 301 ± 1 µg/g and the “L-Valine concentration in G. pulex” value (6h, C1= 0.1 mg/L) was 601 ± 9 µg/g. The “L-aspartic acid concentration in G. pulex” value (6h, C1= 0.1 mg/L) was 43.2 ± 2 µg/g, the “NADH concentration in G. pulex” value (6h, C1= 0.1 mg/L) was 7.7 ± 1 µg/g and the “Taurine concentration in G. pulex” value (6h, C1= 0.1 mg/L) was 10516 ± 434 µg/g. The “Thymidine concentration in G. pulex” value (6h, C1= 0.1 mg/L) was 3697 ± 180 µg/g, the “Trehalose concentration in G. pulex” value (6h, C1= 0.1 mg/L) was 259 ± 8 µg/g and the “Uridine concentration in G. pulex” value (6h, C1= 0.1 mg/L) was 723 ± 21 µg/g.
